Target: NRF2 (nuclear factor erythroid 2-related factor 2) (Homo sapiens, UniProt Q16236)
Assay: FP displacement of fluorescein-ARE DNA from purified NRF2-MAFG
Type: binding

Chain of NRF2 (nuclear factor erythroid 2-related factor 2) (O15525 whole entry): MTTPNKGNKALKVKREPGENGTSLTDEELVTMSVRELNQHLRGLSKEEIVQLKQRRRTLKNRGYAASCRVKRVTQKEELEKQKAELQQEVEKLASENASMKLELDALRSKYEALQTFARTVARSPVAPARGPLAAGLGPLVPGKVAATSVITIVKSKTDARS
Chain of NRF2 (nuclear factor erythroid 2-related factor 2) (Q16236 whole entry): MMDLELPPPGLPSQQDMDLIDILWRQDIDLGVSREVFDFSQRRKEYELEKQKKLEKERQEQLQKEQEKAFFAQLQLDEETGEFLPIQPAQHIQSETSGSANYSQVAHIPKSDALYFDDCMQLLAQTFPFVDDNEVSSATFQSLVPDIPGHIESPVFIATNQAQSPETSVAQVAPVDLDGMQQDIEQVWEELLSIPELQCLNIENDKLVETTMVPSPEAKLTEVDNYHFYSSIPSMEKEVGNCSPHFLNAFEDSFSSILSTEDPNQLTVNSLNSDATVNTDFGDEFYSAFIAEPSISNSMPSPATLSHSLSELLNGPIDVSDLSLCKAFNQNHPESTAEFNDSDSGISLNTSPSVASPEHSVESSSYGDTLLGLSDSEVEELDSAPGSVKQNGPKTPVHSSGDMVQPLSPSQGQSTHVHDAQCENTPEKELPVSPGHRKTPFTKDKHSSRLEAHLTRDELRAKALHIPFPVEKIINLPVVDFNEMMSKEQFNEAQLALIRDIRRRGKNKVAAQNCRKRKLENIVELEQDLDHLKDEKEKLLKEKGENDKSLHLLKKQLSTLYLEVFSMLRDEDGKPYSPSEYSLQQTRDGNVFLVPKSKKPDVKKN

`Cc1ccccc1C(=O)N1CCc2cc(-c3nc(NC(=O)Cc4ccc5c(c4)OCO5)sc3C)ccc21` [compound 2, ML385] showed an IC50 of 1900 nM.

From PMC5367156 (ACS chemical biology, 2016)
